According to ChEMBL document CHEMBL1201862, “PubChem BioAssay data set” (2004):
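Step 1: Grow cells in 96-well plates. Step 2: Expose to compound for 48 hours at 5 concentrations. Step 3: Interpolate endpoints linearly; if unreached, use highest concentration. GI50 = concentration required for 50% inhibition of growth.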 Calls of active or inactive are those of the source. Rule as the data show it: active = GI50 up to about 1.1 µM and inactive = higher.

Key:
Assay in all cases: NCI-60 cell line screen, 48 h
[1] = test system: RXF 393
[2] = test system: SK-MEL-5
[3] = test system: ACHN
[4] = test system: IGROV-1
[5] = test system: HCT-116
[6] = test system: UACC-62
[7] = test system: SNB-75
[8] = test system: U-251
[9] = test system: NCI/ADR-RES
[10] = test system: SK-MEL-28
[11] = test system: CCRF-CEM
[12] = test system: OVCAR-4
[13] = test system: SF-295
[14] = test system: NCI-H226
[15] = test system: Malme-3M
[16] = test system: A498
[17] = test system: UACC-257
[18] = test system: T47D
[19] = test system: Hs-578T
[20] = test system: MDA-MB-435

| Structure (SMILES) | GI50 [1] | GI50 [2] | GI50 [3] | GI50 [4] | GI50 [5] | GI50 [6] | GI50 [7] | GI50 [8] | GI50 [9] | GI50 [10] | GI50 [11] | GI50 [12] | GI50 [13] | GI50 [14] | GI50 [15] | GI50 [16] | GI50 [17] | GI50 [18] | GI50 [19] | GI50 [20] |
| --- | --- | --- | --- | --- | --- | --- | --- | --- | --- | --- | --- | --- | --- | --- | --- | --- | --- | --- | --- | --- |
| COc1cc2c(c(OC)c1OC)C(=O)NCCC2 | > 100 µM (inactive) | > 100 µM (inactive) | > 100 µM (inactive) | > 100 µM (inactive) | > 100 µM (inactive) | > 100 µM (inactive) | 69.7 µM (inactive) | > 100 µM (inactive) | > 100 µM (inactive) | > 100 µM (inactive) | > 100 µM (inactive) | > 100 µM (inactive) | > 100 µM (inactive) | > 100 µM (inactive) | > 100 µM (inactive) | > 100 µM (inactive) | > 100 µM (inactive) |  |  |  |
| COc1ccc(OC2(c3cc(OC)ccc3OC)OC(=O)c3ccccc32)cc1 (stereo not drawn) | > 100 µM (inactive) | > 100 µM (inactive) | > 100 µM (inactive) | > 100 µM (inactive) | > 100 µM (inactive) | > 100 µM (inactive) | > 100 µM (inactive) | > 100 µM (inactive) |  | > 100 µM (inactive) | > 100 µM (inactive) | > 100 µM (inactive) | > 100 µM (inactive) | > 100 µM (inactive) | > 100 µM (inactive) | > 100 µM (inactive) | > 100 µM (inactive) |  |  |  |
| CCOC(OC1=C(C#N)CCCC1)C(C)[Se]c1ccccc1 (stereo not drawn) | 15.2 µM (inactive) | 20.6 µM (inactive) | 44.5 µM (inactive) | 29.2 µM (inactive) | 30.1 µM (inactive) | 19.2 µM (inactive) | 36.9 µM (inactive) | 13.4 µM (inactive) |  | 26 µM (inactive) | 21.7 µM (inactive) | 21.7 µM (inactive) | 33.3 µM (inactive) | 30.7 µM (inactive) | 55.3 µM (inactive) | > 100 µM (inactive) | 74.6 µM (inactive) |  |  |  |
| CN1CCCCC(C#N)(c2ccccc2)CC1 (stereo not drawn) | > 100 µM (inactive) | > 100 µM (inactive) | > 100 µM (inactive) | > 100 µM (inactive) | > 100 µM (inactive) |  | > 100 µM (inactive) | > 100 µM (inactive) | > 100 µM (inactive) | > 100 µM (inactive) | > 100 µM (inactive) | > 100 µM (inactive) | > 100 µM (inactive) |  | > 100 µM (inactive) | > 100 µM (inactive) | > 100 µM (inactive) | > 100 µM (inactive) | > 100 µM (inactive) |  |
| N/C(=N\c1ccc(Cl)c(Cl)c1)c1ccccc1N | 32.7 µM (inactive) | 22.6 µM (inactive) | 56.8 µM (inactive) | 13.3 µM (inactive) | 17.2 µM (inactive) | 54.5 µM (inactive) | 31.4 µM (inactive) | 30.1 µM (inactive) | 19.2 µM (inactive) | 24 µM (inactive) | 27.7 µM (inactive) | 50.8 µM (inactive) | 40.6 µM (inactive) | 42.6 µM (inactive) | 19 µM (inactive) | 22.3 µM (inactive) | 27.1 µM (inactive) |  | 12.3 µM (inactive) | 18.5 µM (inactive) |
| CC12CC(c3ccccc3O1)C(C(=O)Nc1ccc(Cl)cc1Cl)C(=O)N2 (stereo not drawn) |  | > 100 µM (inactive) | 25 µM (inactive) | 24.2 µM (inactive) | 34.3 µM (inactive) | > 100 µM (inactive) |  | 22.2 µM (inactive) | 36.8 µM (inactive) | 72.8 µM (inactive) | 15 µM (inactive) | 19.6 µM (inactive) | 48.2 µM (inactive) |  | 39 µM (inactive) |  | > 100 µM (inactive) | 20.3 µM (inactive) | 25.2 µM (inactive) | 67.1 µM (inactive) |
| COc1cc([C@H]2c3cc4c(cc3[C@H](NCc3ccc([N+](=O)[O-])cc3)C3COC(=O)[C@H]32)OCO4)cc(OC)c1O (stereo partly drawn) | 3.37 µM (inactive) | 2.29 µM (inactive) | 0.378 µM (active) | 12.3 µM (inactive) | 2.36 µM (inactive) | 1.07 µM (active) | 1.45 µM (inactive) | 0.655 µM (active) |  | 5.45 µM (inactive) | 0.251 µM (active) | 72.8 µM (inactive) | 0.681 µM (active) | 0.324 µM (active) | 1.56 µM (inactive) | 0.378 µM (active) | 7.96 µM (inactive) |  |  |  |
| Nc1nc(-[n+]2ccc(-c3ccncc3)cc2)nc(Cl)c1Cl | 16.5 µM (inactive) | > 100 µM (inactive) | > 100 µM (inactive) | 17.6 µM (inactive) | > 100 µM (inactive) | > 100 µM (inactive) |  | 35.4 µM (inactive) | > 100 µM (inactive) | 47 µM (inactive) | 13.9 µM (inactive) | > 100 µM (inactive) |  | > 100 µM (inactive) | 34.9 µM (inactive) | > 100 µM (inactive) | 20.4 µM (inactive) | 16.5 µM (inactive) |  | > 100 µM (inactive) |
| O=C(NCCC1CN(S(=O)(=O)C(F)(F)F)c2ccccc21)OCc1ccccc1 (stereo not drawn) | > 100 µM (inactive) | > 100 µM (inactive) | > 100 µM (inactive) | > 100 µM (inactive) | > 100 µM (inactive) | > 100 µM (inactive) |  | 83.9 µM (inactive) | > 100 µM (inactive) | > 100 µM (inactive) | 38.6 µM (inactive) | > 100 µM (inactive) | > 100 µM (inactive) |  | 12 µM (inactive) | > 100 µM (inactive) | > 100 µM (inactive) |  | 76.6 µM (inactive) | > 100 µM (inactive) |
| CC(CNC(=O)c1ccccc1)(CNC(=O)c1ccccc1)[N+](=O)[O-] | > 100 µM (inactive) | > 100 µM (inactive) | > 100 µM (inactive) | > 100 µM (inactive) | > 100 µM (inactive) | > 100 µM (inactive) | 51.3 µM (inactive) | > 100 µM (inactive) | > 100 µM (inactive) |  |  |  | > 100 µM (inactive) | > 100 µM (inactive) | > 100 µM (inactive) |  | > 100 µM (inactive) | > 100 µM (inactive) | > 100 µM (inactive) | > 100 µM (inactive) |
| CN1N=C(c2ccccc2)c2cc(Cl)ccc2N=C1N/N=C/c1ccc(N(C)C)cc1 | > 100 µM (inactive) | > 100 µM (inactive) | > 100 µM (inactive) | > 100 µM (inactive) | > 100 µM (inactive) | > 100 µM (inactive) | > 100 µM (inactive) | > 100 µM (inactive) | > 100 µM (inactive) | > 100 µM (inactive) | > 100 µM (inactive) | > 100 µM (inactive) | > 100 µM (inactive) | 58.1 µM (inactive) |  |  | > 100 µM (inactive) | > 100 µM (inactive) |  | > 100 µM (inactive) |
| CC[C@@H]1/C=C/C=C/C[C@H](C)[C@@H](O)[C@](C)(O)C(=O)[C@H](C)[C@@H](O)[C@H](C)C(=O)[C@H](C)[C@@H](O)[C@H](C)/C=C/C(=O)O[C@H]2[C@@H](C)[C@@H](CC1)O[C@@]1(CC[C@@H](C)[C@@H](CC(C)O)O1)[C@@H]2C (stereo partly drawn) | 1.68 µM (inactive) | < 0.01 µM (active) | 1.35 µM (inactive) | 1.98 µM (inactive) | 1.1 µM (active) | 1.71 µM (inactive) |  | < 0.01 µM (active) |  | 6.5 µM (inactive) | 1.22 µM (inactive) |  | < 0.01 µM (active) |  | 3.49 µM (inactive) |  | < 0.01 µM (active) | < 0.01 µM (active) | 2.88 µM (inactive) | 1.52 µM (inactive) |
| COc1cc(C2c3cc4c(cc3[C@@H](OCCN)[C@H]3COC(=O)C23)OCO4)cc(OC)c1O (stereo partly drawn) | 0.44 µM (active) | 0.2 µM (active) | 0.181 µM (active) | 1.15 µM (inactive) | 0.995 µM (active) | 0.0843 µM (active) | 0.238 µM (active) | 0.0405 µM (active) |  | 0.518 µM (active) | 0.0316 µM (active) | 2.05 µM (inactive) | 0.108 µM (active) | 0.0873 µM (active) | 0.136 µM (active) | 0.212 µM (active) | 1.24 µM (inactive) |  |  |  |
| COc1cc2c(cc1O)CN1CCC23C=C[C@@H](O)CC13 (stereo partly drawn) | 38.2 µM (inactive) | 39.6 µM (inactive) | 57.5 µM (inactive) | 88.3 µM (inactive) | 34.1 µM (inactive) | > 100 µM (inactive) | 59.4 µM (inactive) | 46.7 µM (inactive) |  | 76.4 µM (inactive) | 28.2 µM (inactive) | 33.2 µM (inactive) | 96.2 µM (inactive) | 76.4 µM (inactive) | > 100 µM (inactive) | > 100 µM (inactive) | 79.4 µM (inactive) |  |  |  |
| CC(C)=CC(=O)N(C)C1C2CN3CCC(O2)C13 (stereo not drawn) | > 100 µM (inactive) | > 100 µM (inactive) | > 100 µM (inactive) | > 100 µM (inactive) | > 100 µM (inactive) | > 100 µM (inactive) | > 100 µM (inactive) | > 100 µM (inactive) |  | > 100 µM (inactive) | > 100 µM (inactive) | > 100 µM (inactive) | > 100 µM (inactive) | > 100 µM (inactive) | > 100 µM (inactive) | > 100 µM (inactive) | > 100 µM (inactive) |  |  |  |
| CC1=C2C(=CC(C)(C)[C@@H]2O)C(=O)[C@](C)(O)C12CC2 [ILLUDIN M] | 0.00329 µM (active) | 0.0126 µM (active) | < 0.011 µM (active) | 0.00989 µM (active) | 0.01 µM (active) | 0.0208 µM (active) | 0.0165 µM (active) | 0.01 µM (active) |  | < 0.0209 µM (active) | 0.0168 µM (active) | < 0.0112 µM (active) | < 0.018 µM (active) | 0.0619 µM (active) | 0.022 µM (active) | 0.0206 µM (active) | 0.08 µM (active) |  |  |  |
